Laboratory results: patent US9856232B1, “Dihydropyrimidinone derivatives” (KING SAUD UNIVERSITY, priority 2017, dated 2018)
Marks after values point to notes of the source that are not given here.

Columns and labels:
mouse = assay: in vivo; conditions: 24 h
Source text: (§1) At the end of the study period, expired animals were counted for the calculation of LD50. The following arithmetic method from Karber (Arch. Exptl. Pathol. Pharmakol, […], 162, 480-483) was used for the determination of LD50: LD50=LD100−Σ×(a×b)/n
(§2) wherein n=total number of animals in a group; a=the difference between two successive doses of administered extract/substance; b=the average number of dead animals in two successive doses; and LD100=lethal dose causing the 100% death of all test animals.
(§3) Table 8 provides the LD50 values of the compounds determined by the Karber method.

in vivo = conditions: mouse
Source text: as §1, §2, §3

[1] = system: gastric mucosa of rats treated with 80% Ethanol; assay: Histopathological evaluation of gastric tissue; format: in vivo, Albino Wistar rats; conditions: 50 mg/kg; FIG. 15B-15F
Protocol: Histopathological evaluation: Gastric tissue samples were fixed in neutral buffered formalin for 24 hours. Sections of gastric tissue were histopathologically examined to study the ulcerogenic and/or anti-ulcerogenic activity of compounds (N-3, N-8, N-11, and N-15). The tissues were fixed in 10% buffered formalin and processed using a VIP tissue processor. The processed tissues were embedded in paraffin blocks and sections about […] thick were cut using an American optical rotary microtome. These sections were stained with haematoxylin and eosin using routine procedures. The slides were examined microscopically for pathomorphological changes such as congestion, hemorrhage, edema, and erosions using an arbitrary scale for severity assessment of these changes (FIGS. 3-14).

[2] = system: Gastric lesions induced by necrotizing agents (80% ethanol, 0.2 mol/L NaOH or 25% NaCl); assay: Gastric lesions induced by necrotizing agents (cytoprotection); format: in vivo, Albino Wistar rats; conditions: i.p, 30 min before necrotizing agent, mean ± SE
[3] = system: malondialdehyde in stomach tissue, induced by 80% ethanol; assay: Determination of malondialdehyde (MDA); format: in vivo, Albino Wistar rats; conditions: mean ± SE
Protocol: (§4) Albino Wistar rats of either sex, approximately the same age, weighing 150 to 200 g and fed on a diet of standard chow were used in this study. They were randomly divided into experimental groups of six rats each. Compounds (N-1 to N-18) 12.5, 25, and 50 mg/kg were given orally in the anti-ulcer studies and intraperitoneally for gastric secretion evaluation. The rats were sacrificed, and the stomachs removed and opened along the greater curvature, After washing with saline, the gastric lesions were quantified by a person unaware of the treatments. The animal study protocol was approved by the Research and Ethics Committee of the Experimental Animal Care Society, College of Pharmacy, King Saud University, Riyadh, Saudi Arabia.
Determination of malondialdehyde (MDA): The animals were sacrificed 1 hour after ethanol administration. The stomachs were removed and each was homogenized in 0.15 mol/L KCl (at 4° C.) in a Potter-Elvehjem type C homogenizer to give a 10% w/v homogenate. Aliquots of homogenate 1 mL in volume were incubated at 37° C. for 3 hours in a metabolic shaker. Then 1 mL of 10% aqueous TCA was added and mixed. The mixture was then centrifuged at 800 g for 10 minutes. One milliliter of the supernatant was removed and mixed with 1 mL of 0.67% w/v thiobarbituric acid in water and placed in a boiling water bath for 10 minutes. The mixture was cooled and diluted with 1 mL distilled water. The absorbance of the solution was then read at 535 nm. The content of malondialdehyde (nmol/g wet tissue) (index of the magnitude of lipid peroxidation) was then calculated, by reference to a standard curve of malondialdehyde solution. Table 7 provides the effect of compounds on the levels of MDA, NP_SH, and total protein in stomach tissue induced by 80% ethanol (mean±SE).

[4] = system: Hypothermic restraint stress-induced intraluminal bleeding and gastric lesion; assay: Hypothermic restraint stress-induced ulcers; format: in vivo, Albino Wistar rats; set-up: Gastric Lesion Ulcer Index: scale not given here; conditions: hypothermic restraint 3 h, mean ± SE
[5] = system: Indomethacin-induced gastric mucosal lesions; assay: Gastric lesions induced by Indomethacin; format: in vivo, Albino Wistar rats; set-up: scale not given here; conditions: i.p, 30 min before Indomethacin 30 mg/kg, mean ± SE
Source text: as §4, with “Compounds (N-1 to N-18) 12.5, 25, and 50 mg/kg were given orally in the anti-ulcer studies and intraperitoneally for gastric secretion evaluation.” left out
Gastric lesions induced by Indomethacin: Indomethacin was suspended in 1.0% carboxymethylcellulose (CMC) in water (6 mg/mL) and administered orally to the 36 hour fasted rats at a dose of 30 mg/kg body weight. Control rats were treated similarly with an equivalent amount of vehicle. […] The animals were sacrificed 6 hours after treatment. The stomachs were excised, rinsed with normal saline and examined for ulceration. Table 3 provides the effect of compounds on Indomethacin-induced gastric mucosal lesions (mean±SE).

[6] = system: gastric mucosal non-protein sulfhydryls, induced by 80% ethanol; assay: Estimation of non-protein sulfhydryls (NP-SH); format: in vivo, Albino Wistar rats; conditions: stomach tissue, 80% ethanol-treated rats, mean ± SE
Protocol: as §4
Estimation of non-protein sulfhydryls (NP_SH): Gastric mucosal non-protein sulfhydryls were measured according to the method. The glandular part of the stomach was homogenized in ice-cold 0.02 mmol/L ethylenediaminetetraacetic acid (EDTA). Aliquots of 5 mL of the homogenates were mixed in 15 mL test tubes with 4 mL of distilled water and 1 mL of 50% trichloroacetic acid (TCA). The tubes were shaken intermittently for 10 minutes and centrifuged at 3000 r/min. Two milliliters of supernatant were mixed with 4 mL of 0.4 mol/L Tris buffer at pH 8.9. Then 0.1 ML of 5, 5′-dithio-bis (2-nitrobenzoic acid) (DTNB) was added and the sample was shaken. The absorbance was measured within 5 minutes of DTNB addition at 412 nm against a reagent blank.

## O=C1NC=C(C(=O)c2ccc(N3CCCCC3)cc2)C(c2ccc([N+](=O)[O-])cc2)N1 (centres unmarked) [Compound N-3, 4-(4-Nitrophenyl)-5-[4-(piperidin-1-yl)benzoyl]-3,4-dihyropyrimidin-2(1H)-one]
mouse; 5 mg/kg
  Dead (of 10 animals): 0
mouse; 25 mg/kg
  Dead (of 10 animals): 0
mouse; 50 mg/kg
  Dead (of 10 animals): 2
mouse; 100 mg/kg
  Dead (of 10 animals): 5
mouse; 200 mg/kg
  Dead (of 10 animals): 8
mouse; 300 mg/kg
  Dead (of 10 animals): 10
In vivo
  LD50 at 24 h: 125 mg/kg
[1]
  Gastric section, effect on gastric mucosa (histology): intact mucosa with mild ulceration
[2]; 12.5 mg/kg
  Ulcer Index, 0.2 mol/L NaOH: 4.50 ± 0.22.***
  Ulcer Index, 25% NaCl: 5.16 ± 0.47
  Ulcer Index, 80% EtOH: 6.83 ± 0.30
[2]; 25 mg/kg
  Ulcer Index, 0.2 mol/L NaOH: 2.66 ± 0.33
  Ulcer Index, 25% NaCl: 2.83 ± 0.30
  Ulcer Index, 80% EtOH: 4.16 ± 0.30
[2]; 50 mg/kg
  Ulcer Index, 0.2 mol/L NaOH: 1.83 ± 0.40
  Ulcer Index, 25% NaCl: 1.66 ± 0.33
  Ulcer Index, 80% EtOH: 3.00 ± 0.36
[3]; dose 12.5, 80% ethanol-treated rats
  MDA: 4.47 ± 0.44***^b nmol/g
[3]; dose 25, 80% ethanol-treated rats
  MDA: 3.07 ± 0.16***^b nmol/g
[3]; dose 50, 80% ethanol-treated rats
  MDA: 1.95 ± 0.05***^b nmol/g
[4]; 12.5 mg/kg
  Gastric Lesion Ulcer Index: 24.16 ± 1.70
  Intraluminal Bleeding Score: 2.83 ± 0.30
[4]; 25 mg/kg
  Gastric Lesion Ulcer Index: 17.66 ± 0.76
  Intraluminal Bleeding Score: 1.50 ± 0.22
[4]; 50 mg/kg
  Gastric Lesion Ulcer Index: 13.83 ± 0.60
  Intraluminal Bleeding Score: 1.16 ± 0.30
[5]; 12.5 mg/kg
  Ulcer Index, indomethacin-induced gastric mucosal lesions: 29.83 ± 1.66
[5]; 25 mg/kg
  Ulcer Index, indomethacin-induced gastric mucosal lesions: 20.50 ± 1.52
[5]; 50 mg/kg
  Ulcer Index, indomethacin-induced gastric mucosal lesions: 12.66 ± 1.28
[6]; dose 12.5
  NP-SH: 3.15 ± 0.20^b nmol/g
[6]; dose 25
  NP-SH: 4.23 ± 0.23**^b nmol/g
[6]; dose 50
  NP-SH: 4.56 ± 0.17***^b nmol/g
